The target in the test is T1, IDO1 (Homo sapiens, UniProt P14902).
T1 construct: HeLa cells were treated with a test compound in the presence of IFNγ, which induces IDO1 expression; host or cells: H1-HeLa cells, IDO1 induced with IFNγ
T1 sequence (P14902 whole entry): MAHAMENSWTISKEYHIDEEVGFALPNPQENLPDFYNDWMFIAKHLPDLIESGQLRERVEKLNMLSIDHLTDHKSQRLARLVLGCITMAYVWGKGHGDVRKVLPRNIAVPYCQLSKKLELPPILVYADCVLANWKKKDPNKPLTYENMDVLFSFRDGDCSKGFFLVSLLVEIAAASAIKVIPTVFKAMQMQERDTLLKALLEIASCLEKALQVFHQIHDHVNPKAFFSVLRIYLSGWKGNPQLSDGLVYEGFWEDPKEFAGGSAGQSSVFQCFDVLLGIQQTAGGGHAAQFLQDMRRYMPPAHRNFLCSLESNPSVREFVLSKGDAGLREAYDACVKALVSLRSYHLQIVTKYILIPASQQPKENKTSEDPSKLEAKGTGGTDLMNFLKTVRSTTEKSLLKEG
Put plainly: Cell-based (HeLa) assay for measurement of IDO1 inhibition (kynurenine levels in supernatant after IFNγ induction). The note with it: HeLa cells, IFNγ-induced IDO1, kynurenine in supernatant after 48 hour incubation; geometric mean of a minimum of four determinations. The essentials: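 HeLa cells, 1,250 per well, treated with compound (0.5% DMSO final) plus IFNγ to induce IDO1, for 48 h. Supernatant kynurenine measured by TCA hydrolysis at 60 °C, then p-dimethylaminobenzaldehyde, absorbance 480 nm. EC50 from a four-parameter fit normalized to −/+IFNγ controls; geometric mean of at least four runs.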
On to `O/N=C(\Nc1ccc(F)c(Cl)c1)c1ccnc2nc(CNCC3CCCOC3)[nH]c12` (centres unmarked) [Example 129, N-(3-Chloro-4-fluorophenyl)-N′-hydroxy-2-((((tetrahydro-2H-pyran-3-yl)methyl)amino)methyl)-1H-imidazo[4,5-b]pyridine-7-carboximidamide], for which the midpoint of the response, the EC50, lay at 2580 nM.

In the case of `O/N=C(\Nc1ccc(F)c(Cl)c1)c1ccnc2nc(CNCc3ncccn3)[nH]c12` [Example 130, N-(3-Chloro-4-fluorophenyl)-N′-hydroxy-2-(((pyrimidin-2-ylmethyl)amino)methyl)-1H-imidazo[4,5-b]pyridine-7-carboximidamide], the midpoint of the response, the EC50, lay at 2810 nM.

Regarding `O/N=C(\Nc1ccc(F)c(Cl)c1)c1ccnc2nc(CNCCCN3CCOCC3)[nH]c12` [Example 131, N-(3-Chloro-4-fluorophenyl)-N′-hydroxy-2-(((3-morpholinopropyl)amino)methyl)-1H-imidazo[4,5-b]pyridine-7-carboximidamide], the EC50 (usually the concentration needed to bring the measured effect to its halfway point) stood at 3020 nM.

`O/N=C(\Nc1ccc(F)c(Cl)c1)c1ccnc2nc(CNC3CCOCC3)[nH]c12` [Example 132, N-(3-Chloro-4-fluorophenyl)-N′-hydroxy-2-(((tetrahydro-2H-pyran-4-yl)amino)methyl)-1H-imidazo[4,5-b]pyridine-7-carboximidamide] yielded an EC50 of 3430 nM.

On to `O/N=C(\Nc1ccc(F)c(Cl)c1)c1ccnc2nc(CNCc3ccncc3)[nH]c12` [Example 133, N-(3-Chloro-4-fluorophenyl)-N′-hydroxy-2-(((pyridin-4-ylmethyl)amino)methyl)-1H-imidazo[4,5-b]pyridine-7-carboximidamide], for which a half-maximal effect (EC50) was put at 3710 nM.

Compound `O/N=C(\Nc1ccc(F)c(Cl)c1)c1ccnc2nc(CNCc3cnccn3)[nH]c12` [Example 134, N-(3-Chloro-4-fluorophenyl)-N′-hydroxy-2-(((pyrazin-2-ylmethyl)amino)methyl)-1H-imidazo[4,5-b]pyridine-7-carboximidamide] yielded an EC50 of 3990 nM.

`O/N=C(\Nc1ccc(F)c(Cl)c1)c1ccnc2nc(CNCC3CCOC3)[nH]c12` (centres unmarked) [Example 135, N-(3-Chloro-4-fluorophenyl)-N′-hydroxy-2-((((tetrahydrofuran-3-yl)methyl)amino)methyl)-1H-imidazo[4,5-b]pyridine-7-carboximidamide] came in with a concentration giving a half-maximal response (EC50) of 5110 nM.

In the case of `CN(C)CCNCc1nc2nccc(/C(=N/O)Nc3ccc(F)c(Cl)c3)c2[nH]1` [Example 136, N-(3-Chloro-4-fluorophenyl)-2-(((2-(dimethylamino)ethyl)amino)methyl)-N′-hydroxy-1H-imidazo[4,5-b]pyridine-7-carboximidamide], it took 6270 nM to reach a half-maximal effect (EC50).

`O/N=C(\Nc1ccc(F)c(Cl)c1)c1ccnc2nc(CNCCc3ncccn3)[nH]c12` [Example 137, N-(3-Chloro-4-fluorophenyl)-N′-hydroxy-2-(((2-(pyrimidin-2-yl)ethyl)amino)methyl)-1H-imidazo[4,5-b]pyridine-7-carboximidamide] returned a half-maximal effective concentration (EC50) of 7490 nM.

Regarding `OCCCNCc1nc2nccc(/C(=N/O)Nc3ccc(F)c(Cl)c3)c2[nH]1` [Example 138, N-(3-Chloro-4-fluorophenyl)-N′-hydroxy-2-(((3-hydroxypropyl)amino)methyl)-1H-imidazo[4,5-b]pyridine-7-carboximidamide], the EC50 turned out to be 8240 nM.

On to `O/N=C(\Nc1ccc(F)c(Cl)c1)c1ccnc2nc(CN3CCCC3)[nH]c12` [Example 139, N-(3-Chloro-4-fluorophenyl)-N′-hydroxy-2-(pyrrolidin-1-ylmethyl)-1H-imidazo[4,5-b]pyridine-7-carboximidamide], for which the EC50 turned out to be 1400 nM.

Compound `O/N=C(\Nc1ccc(F)c(Cl)c1)c1ccnc2nc(CN3CCCCC3)[nH]c12` [Example 140, N-(3-Chloro-4-fluorophenyl)-N′-hydroxy-2-(piperidin-1-ylmethyl)-1H-imidazo[4,5-b]pyridine-7-carboximidamide] came in with an EC50 of 1610 nM.

`CC(C)(C)CNCc1nc2nccc(/C(=N/O)Nc3ccc(F)c(Cl)c3)c2[nH]1` [Example 141, N-(3-Chloro-4-fluorophenyl)-N′-hydroxy-2-((neopentylamino)methyl)-1H-imidazo[4,5-b]pyridine-7-carboximidamide] registered an EC50 of 1680 nM.

Consider `O/N=C(\Nc1ccc(F)c(Cl)c1)c1ccnc2nc(CNCC(F)F)[nH]c12` [Example 142, N-(3-Chloro-4-fluorophenyl)-2-(((2,2-difluoroethyl)amino)methyl)-N′-hydroxy-1H-imidazo[4,5-b]pyridine-7-carboximidamide], for which the concentration for a half-maximal effect (EC50) came to 5160 nM.

`CC(C)(CO)CNCc1nc2nccc(/C(=N/O)Nc3ccc(F)c(Cl)c3)c2[nH]1` [Example 143, N-(3-Chloro-4-fluorophenyl)-N′-hydroxy-2-(((3-hydroxy-2,2-dimethylpropyl)amino)methyl)-1H-imidazo[4,5-b]pyridine-7-carboximidamide] yielded a concentration giving a half-maximal response (EC50) of 7350 nM.

`O/N=C(\Nc1ccc(F)c(Cl)c1)c1ccnc2nc(CNCc3nccs3)[nH]c12` [Example 144, N-(3-Chloro-4-fluorophenyl)-N′-hydroxy-2-(((thiazol-2-ylmethyl)amino)methyl)-1H-imidazo[4,5-b]pyridine-7-carboximidamide]: a half-maximal effect (EC50) was put at 8230 nM.

Compound `CC(=O)NCc1nc2nccc(/C(=N/O)Nc3ccc(F)c(Cl)c3)c2[nH]1` [Example 145, N-((7-(N-(3-Chloro-4-fluorophenyl)-N′-hydroxycarbamimidoyl)-1H-imidazo[4,5-b]pyridin-2-yl)methyl)acetamide] came in with a half-maximal effective concentration (EC50) of 9760 nM.

Take `O/N=C(\Nc1ccc(F)c(Cl)c1)c1ccnc2nc(-c3cccs3)[nH]c12` [Example 146, N-(3-Chloro-4-fluorophenyl)-N′-hydroxy-2-(thiophen-2-yl)-1H-imidazo[4,5-b]pyridine-7-carboximidamide]: the concentration for a half-maximal effect (EC50) worked out at 4220 nM.

In turn, `O/N=C(\Nc1ccc(F)c(Cl)c1)c1ccnc2nc(-c3cccnc3)[nH]c12` [Example 147, N-(3-Chloro-4-fluorophenyl)-N′-hydroxy-2-(pyridin-3-yl)-1H-imidazo[4,5-b]pyridine-7-carboximidamide] showed a half-maximal effective concentration (EC50) of 1930 nM.

Compound `O/N=C(\Nc1ccc(F)c(Cl)c1)c1ccnc2nc(-c3ccc[nH]3)[nH]c12` [Example 148, N-(3-Chloro-4-fluorophenyl)-N′-hydroxy-2-(1H-pyrrol-2-yl)-1H-imidazo[4,5-b]pyridine-7-carboximidamide] displayed an EC50 of 2230 nM.

As to `O/N=C(\Nc1ccc(F)c(Cl)c1)c1ccnc2nc(-c3ncc[nH]3)[nH]c12` [Example 149, N-(3-Chloro-4-fluorophenyl)-N′-hydroxy-2-(1H-imidazol-2-yl)-1H-imidazo[4,5-b]pyridine-7-carboximidamide], the concentration giving a half-maximal response (EC50) came out at 529 nM.

Regarding `O/N=C(\Nc1ccc(F)c(Cl)c1)c1ccnc2nc(-c3ccn[nH]3)[nH]c12` [Example 150, N-(3-Chloro-4-fluorophenyl)-N′-hydroxy-2-(1H-pyrazol-5-yl)-1H-imidazo[4,5-b]pyridine-7-carboximidamide], the 50% effective concentration (EC50) worked out at 8480 nM.

Regarding `Cc1c[nH]c(-c2nc3nccc(/C(=N/O)Nc4ccc(F)c(Cl)c4)c3[nH]2)n1` [Example 151, N-(3-Chloro-4-fluorophenyl)-N′-hydroxy-2-(4-methyl-1H-imidazol-2-yl)-1H-imidazo[4,5-b]pyridine-7-carboximidamide], the EC50 was found to be 463 nM.

For the compound `O/N=C(\Nc1ccc(F)c(Cl)c1)c1ccnc2nc(C3CCCN3)[nH]c12` (centres unmarked) [Example 152, N-(3-Chloro-4-fluorophenyl)-N′-hydroxy-2-(pyrrolidin-2-yl)-1H-imidazo[4,5-b]pyridine-7-carboximidamide], the EC50 stood at 4040 nM.

For the compound `Nc1nc2nccc(/C(=N/O)Nc3ccc(F)c(Cl)c3)c2[nH]1` [Example 153, 2-Amino-N-(3-chloro-4-fluorophenyl)-N′-hydroxy-1H-imidazo[4,5-b]pyridine-7-carboximidamide], the EC50 worked out at 897 nM.

As to `O/N=C(\Nc1ccc(F)c(Cl)c1)c1ccnc2nc(NC3CC3)[nH]c12` [Example 154, N-(3-Chloro-4-fluorophenyl)-2-(cyclopropylamino)-N′-hydroxy-1H-imidazo[4,5-b]pyridine-7-carboximidamide], the half-maximal effective concentration (EC50) was 529 nM.

On to `O/N=C(\Nc1ccc(F)c(Cl)c1)c1ccnc2nc(Nc3ccccc3)[nH]c12` [Example 155, N-(3-Chloro-4-fluorophenyl)-N′-hydroxy-2-(phenylamino)-1H-imidazo[4,5-b]pyridine-7-carboximidamide], for which the response was half-maximal at 2150 nM (EC50).

Compound `O/N=C(\Nc1ccc(F)c(Cl)c1)c1ccnc2nc(NCCc3ccccc3)[nH]c12` [Example 156, N-(3-Chloro-4-fluorophenyl)-N′-hydroxy-2-(phenethylamino)-1H-imidazo[4,5-b]pyridine-7-carboximidamide] had a half-maximal effective concentration (EC50) of 769 nM.

Regarding `O/N=C(\Nc1ccc(F)c(Cl)c1)c1ccnc2nc(NCC(F)(F)F)[nH]c12` [Example 157, N-(3-Chloro-4-fluorophenyl)-N′-hydroxy-2-((2,2,2-trifluoroethyl)amino)-1H-imidazo[4,5-b]pyridine-7-carboximidamide], the concentration for a half-maximal effect (EC50) is 1090 nM.

Compound `CNc1nc2nccc(/C(=N/O)Nc3ccc(F)c(Cl)c3)c2[nH]1` [Example 158, N-(3-Chloro-4-fluorophenyl)-N′-hydroxy-2-(methylamino)-1H-imidazo[4,5-b]pyridine-7-carboximidamide] yielded an EC50 of 460 nM.

`CC(C)OC(=O)Nc1nc2nccc(/C(=N/O)Nc3ccc(F)c(Cl)c3)c2[nH]1` [Example 159, Isopropyl (7-(N-(3-chloro-4-fluorophenyl)-N′-hydroxycarbamimidoyl)-1H-imidazo[4,5-b]pyridin-2-yl)carbamate] displayed an EC50 of 453 nM.

Take `CCOC(=O)Nc1nc2nccc(/C(=N/O)Nc3ccc(F)c(Cl)c3)c2[nH]1` [Example 160, Ethyl (7-(N-(3-chloro-4-fluorophenyl)-N′-hydroxycarbamimidoyl)-1H-imidazo[4,5-b]pyridin-2-yl)carbamate]: the EC50 is 423 nM.

The values are drawn from patent publication US9951065B2 (Gilead Sciences, Inc., priority 2015, dated 2018).
